Consider eight compounds from patent US20070010548A1, “Compounds having inhibitive activity of phosphatidylinositol 3-kinase and methods of use thereof” (ZENTARIS GmbH, priority 2003, published 2007).

The subject of assay [1] is tumor cells altered in PI 3-K/PTEN. The experiment in a line: Cellular growth inhibition assays on tumor cells altered in PI 3-K/PTEN. The format is cell-based. The conditions noted are these: for IC50: approximate, read-out: Approx. mIC50 in cellular assays. As to the method:
(§1) The ovarian cancer cell line SKOV3 is not altered in PI 3-K signaling and should be less sensitive to the anti-proliferative effects produced by treatment with PI 3-K inhibitors, while the OVCAR3 cell line, which is altered in PI 3-K signaling, via amplification of PI 3-K activity, should be sensitive. SKOV3 cells were seeded in 96-well cell culture plates (Greiner) at a density of 20,000 cells per well in McCoys 5A media (GibcoBRL) with 10% fetal calf serum and 20 mM L-glutamine. OVCAR3 cells were seeded at a density of 15,000 cells per well in RPMI 1640 media (GibcoBRL) containing 20 mM 1-glutamine, 0.01 ng/ml bovine insulin, 10 mM Hepes pH 7.4, 1 mM sodium pyruvate, 2.5 g/L glucose, and 20% fetal calf serum. After 24 hours, compounds were added to cell media to a final concentration of 1 μM, and the cells were grown in the presence of the compounds for 48 hours, in media containing 0.5% fetal calf serum. Viability was determined using a MTT cell proliferation assay (R and D Systems) and comparison to DMSO alone controls (100% viability). Compounds which result in reduced viability may act either by inhibiting cell proliferation or by inducing apoptosis (programmed cell death).
Selected compounds were evaluated against paired ovarian cancer cell lines at a range of concentrations to determine effective concentrations for growth inhibition.
MDA-MB-468 and MDA-MB-231 cells were seeded in 96-well cell culture plates (Greiner) at a density of 20,000 cells per well in RMPI media (GibcoBRL) with 10% fetal calf serum and 20 mM L-glutamine. After 24 hours, compounds were added to cell media to a final concentrations ranging from 10 nM to 100 μM, and the cells were grown in the presence of the compounds for 48 hours in RMPI media containing 0.5% fetal calf serum and 20 mM L-glutamine. Viability was determined using a MTT cell proliferation assay (R and D Systems) and comparison to DMSO alone controls (100% viability). Compounds which result in reduced viability may act either by inhibiting cell proliferation or by inducing apoptosis (programmed cell death). […] Selected compounds were evaluated against the paired breast cancer cell lines at a range of concentrations to determine effective concentrations for growth inhibition.
Table 3 summarizes the data for several compounds of this structural group, including the IC50 for inhibition of enzyme activity in vitro, cellular mIC50 and anti-proliferative activity against tumor cells altered in PI 3-K mediated signaling, and effects on cellular levels of phospho-Akt.

In a further assay the test system is OVCAR3 cells. Briefly: MTT cell proliferation/viability assay, OVCAR3 ovarian cancer cells. The format is cell-based. The note with it: Homo sapiens. On the procedure:
as §1
(§2) Many of these also show similar selective effects on cell growth. Table 2 summarizes the results of two separate cell proliferation experiments for selected compounds of the present invention.

In a further assay the test system is SKOV3 cells. Briefly: MTT cell proliferation/viability assay, SKOV3 ovarian cancer cells. The format is cell-based. The conditions noted are these: Homo sapiens. On the procedure: as §1, §2
In another assay the test system is MA-MB-468 cells. The experiment in a line: Three dimensional matrix model of tumor cell growth. The format is cell-based. The note with it: Homo sapiens, read-out: Percent Inhibition of Tumor Cell Viability. On the procedure:
PI 3-K inhibitors are assayed for effects on tumor cells grown in three-dimensional matrix that more closely mimics the environment of a tumor than other cell culture models. MA-MB-468 cells are mixed in a matrix solution, such as Matrigel (13D Biosciences) at 2×10 ^6 cells/ml and 100 μl of this mixture added to each well of a 24 well cell culture plate. Each well is 6.5 mm in diameter and 2×10^5 cells are added per well. Once the matrix is solidified, RMPI media containing 10% fetal calf serum and 2 mM L-glutamine is added to each well. After approximately 14 days of culture, the compounds are added to cell media at final concentrations ranging from 10 nM to 100 μM, and the cells are grown in the presence of the compounds for 7 days in RMPI media containing 0.5% fetal calf serum and 20 mM L-glutamine.
Following this treatment, cell growth in the three dimensional matrix can be measured using a cell viability assay such as the CellTiter 96 One Solution Cell Proliferation Assay (Promega, G3582). […] of assay solution is added per well, the cells are incubated for 3 hours. Absorbance at 550 nm is determined for each well and used directly as being equivalent of cell number. In addition, live and dead cells can be distinguished and observed using fluorescence microscopy after staining with Fluorescein diacetate (Sigma), which labels live cells, and propidium iodide (Sigma), which labels dead cells.
The PI 3-K inhibitors of the present invention show anti-proliferative effects in this model of tumor cell growth, as shown by the representative data in Table 6, which compares the anti-proliferative effects of one inhibitor compared to the effects of the benchmark PI 3-K inhibitor LY294002. The PI 3-K inhibitors of the present invention also show enhanced anti-proliferative activity when combined with other cancer drugs, for example paclitaxel or doxorubicin.

The subject of another assay is PI 3-K. The conditions noted are these: background literature; read-out: IC50 (inhibits PI 3-K); cited from earlier work.
The mark [2] stands for this setting: OVCAR-3, 48 hours, MTT, DMSO alone controls = 100% viability, Trial 1, read-out: Trial 1 OVCAR3 (viability).
The mark [3] stands for this setting: OVCAR-3, 48 hours, MTT, DMSO alone controls = 100% viability, Trial 2, read-out: Trial 2 OVCAR3 (viability).
The mark [4] stands for this setting: OVCAR-3, average of Trial 1 and Trial 2, 48 hours, read-out: average OVCAR-3 (viability).
The mark [5] stands for this setting: SK-OV-3, 48 hours, MTT, DMSO alone controls = 100% viability, Trial 1, read-out: Trial 1 SKOV-3 (viability).
[6] abbreviates: SK-OV-3, 48 hours, MTT, DMSO alone controls = 100% viability, Trial 2, read-out: Trial 2 SKOV-3 (viability).
Where [7] appears, read: SK-OV-3, average of Trial 1 and Trial 2, 48 hours, read-out: Average SKOV3 (viability).

Like-named read-outs stand apart in the source and are kept apart here. Where only a bound is given, the exact number is not on record here.

As for `Cc1cccc(-n2nc(C(C)(C)C)c3c2NC2=C(C(=O)CC(C)(C)C2)C3c2ccc(C(C)(C)C)cc2)c1C` (stereo not drawn) [Compound 964336], in assay [1], the “Anti-proliferative effects on tumor cells altered in PI 3-K/PTEN” value (shortened to “Anti-proliferative effects”) is reported as “Yes”. Further, the IC50 in assay [1] is less than 20 µM. Besides, the viability at 1 µM is 32% in the assay with OVCAR3 cells (setting [2]); 56% with OVCAR3 cells (setting [3]); 44% in the assay with OVCAR3 cells (setting [4]); 96% in the assay with SKOV3 cells (setting [5]); 83% in the assay with SKOV3 cells (setting [6]); 89.5% in the assay with SKOV3 cells (setting [7]).

For the compound `CC1(C)CC(=O)C2=C(C1)Nc1c(c(-c3ccccc3)nn1-c1ccc(F)cc1)C2c1ccc(C(C)(C)C)cc1` (stereo not drawn) [Compound 963924], in assay [1], the “Anti-proliferative effects” value is given as “Yes”. Further, the IC50 in assay [1] is less than 20 µM. For the same compound, the viability at 1 µM with OVCAR3 cells (setting [2]) was 61%; with OVCAR3 cells (setting [3]), 66.4%; with OVCAR3 cells (setting [4]), 63.7%; in the assay with SKOV3 cells (setting [5]), 100%; in the assay on SKOV3 cells (setting [6]) it was 100%; with SKOV3 cells (setting [7]), 100%.

On to `Cc1ccc(C2C3=C(CC(C)(C)CC3=O)Nc3c2c(C(C)(C)C)nn3-c2cccc(F)c2)cc1` (stereo not drawn) [Compound 964352], for which, in assay [1], the “Anti-proliferative effects” value is given as “Yes”. In addition, the IC50 in assay [1] is less than 20 µM. The viability at 1 µM was 33% with OVCAR3 cells (setting [2]); 52.9% with OVCAR3 cells (setting [3]); 43% in the assay with OVCAR3 cells (setting [4]); 93% in the assay with SKOV3 cells (setting [5]); 74% with SKOV3 cells (setting [6]); 83.5% in the assay with SKOV3 cells (setting [7]).

Take `CCOc1ccc(C2C3=C(CC(C)(C)CC3=O)Nc3c2c(C(C)(C)C)nn3C(C)(C)C)cc1` (stereo not drawn) [Compound 963977]: the viability at 1 µM in the assay on OVCAR3 cells (setting [2]) amounted to 41%; in the assay on OVCAR3 cells (setting [3]) it was 59.6%; in the assay with OVCAR3 cells (setting [4]) it was 50.3%; in the assay on SKOV3 cells (setting [5]), 98%; in the assay with SKOV3 cells (setting [6]), 81.7%; with SKOV3 cells (setting [7]) it was 89.8%.

Turning to `CCOc1ccc(C2C3=C(CC(C)(C)CC3=O)Nc3c2c(C(C)(C)C)nn3-c2ccc(Cl)cc2)cc1` (stereo not drawn) [Compound 964127], the “Anti-proliferative effects” value in assay [1] was “Yes”. Also, the IC50 in assay [1] is less than 20 µM. Also, the viability at 1 µM in the assay on OVCAR3 cells (setting [2]) is 42%; with OVCAR3 cells (setting [3]), 76.2%; with OVCAR3 cells (setting [4]), 59.1%; in the assay on SKOV3 cells (setting [5]) it was 100%; in the assay on SKOV3 cells (setting [6]) it was 100%; with SKOV3 cells (setting [7]), 100%.

Regarding `COc1cc(OC)cc(C2C3=C(CC(C)(C)CC3=O)Nc3c2c(C(C)(C)C)nn3-c2ccc(Cl)cc2)c1` (stereo not drawn) [Compound 964144], the “Anti-proliferative effects” value in assay [1] was “Yes”. In assay [1], the IC50 is less than 20 µM. Also, the viability at 1 µM in the assay with OVCAR3 cells (setting [2]) is 54%; in the assay with OVCAR3 cells (setting [3]) it was 66.2%; with OVCAR3 cells (setting [4]), 60.1%; in the assay on SKOV3 cells (setting [5]) it was 100%; in the assay with SKOV3 cells (setting [6]), 100%; in the assay on SKOV3 cells (setting [7]), 100%.

Consider `O=c1cc(N2CCOCC2)oc2c(-c3ccccc3)cccc12` [LY294002, reference compound], for which the cytotoxicity at 1 µM with MA-MB-468 cells (Concentration 1 μM) was less than 5%. In addition, the cytotoxicity at 5 µM in the assay with MA-MB-468 cells (Concentration 5 μM) worked out at 50%. Also, the cytotoxicity at 10 µM in the assay on MA-MB-468 cells (Concentration 10 μM) amounted to 60%. The cytotoxicity at 50 µM in the assay on MA-MB-468 cells (Concentration 50 μM) was found to be 90%.

Turning to `O=c1c(O)c(-c2ccc(O)c(O)c2)oc2cc(O)cc(O)c12` [quercetin], in the assay on PI 3-K, the IC50 is 3.8 µM.
